From paper PMC8704389, “New Insights into the Hypotensins from Tityus serrulatus Venom: Pro-Inflammatory and Vasopeptidases Modulation Activities” (Toxins, 2021)
No end group written: not given here.

What was measured:
NEP = assay: in vitro; assay type: in vitro ADME; conditions: human, isolated enzyme neprilysin; 30 µM peptide, NEP 1.5 ng, Tris HCl 50 mM, pH 7.5, 4 h, 37 °C, RP-HPLC C18, UV 214 nm; read-out: hydrolysis products after incubation with NEP
Method: Figure 1 Analysis of the susceptibility to hydrolysis of the hypotensins over the vasopeptidases NEP and ACE. Incubations were carried out in Tris HCl 100 mM, NaCl 50 mM and ZnCl2 10 µM, pH 7.0, for the ACE assays, and, for the NEP assays, in Tris HCl 50 mM, pH 7.5 buffer, for four hours at 37 °C. (A) TsHpt-I control (black line) and after incubation with NEP (red line). (B) TsHpt-II control (black line) and TsHpt-II incubated with NEP (red line). (C) TsHpt-I control (black line) and incubated with ACE (red line). (D) TsHpt-II control (black line) and after incubation with ACE (red line). The samples of negative and experimental controls (A) TsHpt-I and (B) TsHpt-II are shown on the left and right, respectively. The hydrolysis products were considered ≤5%. The gradient used was 20% to 60% solvent B in 20 min, and 60% to 100% solvent B in 5 min (flow 1 mL/min, absorbance at 214 nm). Restek Ultra C-18 5 µm column, 250 × 4.6 mm.
The synthetic peptides TsHpt-I and TsHpt-II (30 µM) were incubated with ACE (3.0 ng), in Tris HCl 100 mM, NaCl 50 mM and ZnCl2 10 µM, pH 7.0 buffer, and NEP (1.5 ng), in Tris HCl 50 mM, pH 7.5 buffer, at 37 °C for 4 h. Samples containing only the synthetic peptides were used as the negative control. After incubation, samples were analyzed by reverse phase chromatography on RP-HPLC (Shimadzu, Kyoto, Japan), using a Restek Ultra C-18 column (5 µm, 250 × 4.6 mm). […]

[1] = test system: murine peritoneal macrophages; assay: Cytokine production by murine peritoneal macrophages, CBA method; assay type: cell-based, BALB/c mice; conditions: 24 h; for release of IL-10, IL-12p70, IFN-γ and MCP-1: 10, 50 and 100 µg/mL, data not shown
Method: Figure 4 Cytokine production by murine peritoneal macrophages stimulated in vitro with TsHpt-I and -II. Peritoneal exudate macrophages from naïve BALB/c mice were cultured for 24 h in the presence of TsHpt-I (A,C) and -II (B,D), at concentrations of 10 µg/mL, 50 µg/mL and 100 µg/mL. Cells cultured with medium alone or in the presence of 5 µg/mL LPS were used as negative and positive controls, respectively. The concentrations of TNF (A,B) and IL-6 (C,D) were determined by the CBA method, according to the manufacturer’s instructions. The results represent the mean ± SD of three independent experiments performed in triplicate. * p < 0.05.
Peritoneal exudate cells (BALB/c naïve mice, n = 6) were collected by two washes with 5 mL of RPMI medium. The cells obtained were washed twice with RMPI medium, at 400 g, for 10 min, at 18 °C, and resuspended in R10 medium (RPMI + 10% fetal cow serum). After counting in a Neubauer chamber, in the presence of Trypan blue, the cell concentration was adjusted to 2 × 10^6 cells/mL. Cells were distributed into 96-well culture plates (2 × 10^5 cells/100 µL/well) and incubated for 2 h at 37 °C and 5% CO2. After incubation, non-adherent cells were discarded, and adherent cells (macrophages) were resuspended in R10 medium containing the respective tested stimuli, at different concentrations, in triplicates, in a final volume of 200 µL/well. Cells resuspended in R10 medium were used as a negative control, and cells stimulated with LPS (5 µg/mL) as a positive control. Cells were then incubated for 24 h at 37 °C and 5% CO2. After this period, the culture supernatants were collected and stored at −80 °C, for subsequent dosage of cytokines, and cell viability was determined by MTT assay.
The concentration of pro- and anti-inflammatory cytokines (IL-6, IL-10, IL-12p70, […], MCP-1 and TNF) in the samples incubated with both hypotensins (10 µg/mL, 50 µg/mL and 100 µg/mL) was determined by the CBA method (BD Cytometric Bead Array Mouse Inflammation Kit), according to the manufacturer’s instructions. The samples were acquired in a BD FACSCanto II flow cytometer, and the data were analyzed using BD FCAP Array version 3.0 software.

[2] = test system: murine peritoneal macrophages; assay: Phagocytic activity of murine peritoneal macrophages (Saccharomyces cerevisiae); assay type: cell-based, BALB/c mice; conditions: 100 µg/mL, 24 h, then 1 h with Saccharomyces cerevisiae; duplicate; versus negative control
Method: Figure 5 Phagocytic activity of the murine peritoneal macrophages stimulated in vitro with TsHpt-I and -II. Peritoneal exudate macrophages from naïve BALB/c mice were cultured on glass coverslips for 24 h in culture medium or in the presence of LPS (5 μg/mL) or TsHpt-I and -II (100 μg/mL). After this period, the cells were incubated for 1 h with a suspension of Saccharomyces cerevisiae. Coverslips were washed, fixed and stained by Giemsa. (A) Phagocytosis images in 400× magnification. (B) The phagocytic index was calculated based on the percentage of phagocytic cells and on the average number of yeasts per cell, by counting approximately 200 cells per coverslip in 1000× magnification. The results represent one of two reproducible experiments performed in duplicate (mean ± SD). * p < 0.05.
Peritoneal macrophages from naïve BALB/c mice (n = 6) were obtained as described above (item 5.5.1). Cells were distributed in 24-well culture plates (5 × 10^5 cells/500 µL/well), with glass coverslips inside, and incubated for 2 h at 37 °C and 5% CO2. […] Phagocytosis was evaluated by immersion optical microscopy (1000×) and quantified by counting approximately 200 cells per cover slip. The percentage of phagocytic cells and the average number of internalized yeasts per phagocytic cell were calculated. […]

[3] = 100 µg/mL, three independent experiments in triplicate

Row | Sequence | metabolised at 4 h, 30 µM (NEP) | release of TNF [1, 3] | release of IL-10, IL-12p70, IFN-γ and MCP-1 [1] | phagocytic index [2] | release of IL-6 [1, 3]
1 | AEIDFSGIPEDIIKQIKETNAKPPA [TsHpt-I] | ≤ 5% | release of significant levels of TNF | None of the peptides were able to induce the release | significant increase in the phagocytic index | 
2 | AEIDFSGIPEDIIKEIKETNAKPPA [TsHpt-II] | ≤ 5% | release of significant levels of TNF | None of the peptides were able to induce the release | significant increase in the phagocytic index | induced the release of IL-6
